{"source": "ChEMBL document CHEMBL2010654", "about": "“Novel isoxazole polycyclic aromatic hydrocarbons as DNA-intercalating agents” (Eur J Med Chem, 2012)", "key": {"HeLa": {"system": "HeLa", "assay": "Cytotoxicity against human HeLa cells after 20 hrs by MTS assay", "assay_type": "functional, cell-based"}, "A549 [1]": {"system": "A549", "assay": "Cytotoxicity against human A549 cells after 20 hrs by SRB assay", "assay_type": "functional, cell-based", "details": "A549, 20 h"}, "MOLT-3": {"system": "MOLT-3", "assay": "Cytotoxicity against human MOLT3 cells after 20 hrs by MTS assay", "assay_type": "functional, cell-based", "details": "MOLT-3, 20 h"}, "THP-1": {"system": "THP-1", "assay": "Cytotoxicity against human THP1 cells after 20 hrs by MTS assay", "assay_type": "functional, cell-based", "details": "THP-1, 20 h"}, "U-937": {"system": "U-937", "assay": "Cytotoxicity against human U937 cells after 20 hrs by MTS assay", "assay_type": "functional, cell-based", "details": "U-937, 20 h"}, "Vero": {"system": "Vero", "assay": "Cytotoxicity against african green monkey Vero cells after 20 hrs by MTS assay", "assay_type": "cell-based", "details": "Chlorocebus sabaeus"}, "Nucleic Acid [2]": {"system": "Nucleic Acid", "assay": "Binding affinity to Escherichia coli supercoiled phiX174 RF1 DNA assessed as DNA unwinding in presence of topoisomerase 1 after 30 mins by agarose gel electrophoresis", "assay_type": "nucleic-acid assay"}, "Nucleic Acid [3]": {"system": "Nucleic Acid", "assay": "Binding affinity to calf thymus DNA by UV titration analysis", "assay_type": "nucleic-acid assay", "details": "Bos taurus"}, "Nucleic Acid [4]": {"system": "Nucleic Acid", "assay": "Binding affinity to poly-d(AT)2 DNA by UV titration analysis", "assay_type": "nucleic-acid assay"}, "Nucleic Acid [5]": {"system": "Nucleic Acid", "assay": "Binding affinity to polyd(GC)2 DNA by UV titration analysis", "assay_type": "nucleic-acid assay"}, "A549 [6]": {"system": "A549", "assay": "Cytotoxicity against human A549 cells assessed as reduction of cell number at 0.5 ug/ml after 8 hrs relative to control", "assay_type": "functional", "parameters": "scale not given: the % may be the effect or the level left"}}, "note": "Active and inactive are the calls of the source. No cut-off for these calls is given here. *1 amine or outer side, *2 acyl side, *3 side chain or, on linkers, in order; H or OH if unused. Where a SMILES comes first, the peptide text is derived from it. Bridges are numbered along the chain shown (N, C = ends). Roman numbers before positions name the chains, in order. [ ]: non-standard residue; d: D form. Actinocin(1to9) = Cc1c2oc3c(C)ccc(C(=O)[*:2])c3nc-2c(C(=O)[*:1])c(N)c1=O; NMeV = CN[C@H](C(=O)O)C(C)C; Sar = CNCC(=O)O"}
{"compound": "CN(C)C(=O)[C@H]1C[C@H](c2cc3ccccc3c3ccccc23)N(C)O1", "values": [{"measurement": "IC50", "setting": "HeLa", "value": 86, "unit": "µM"}, {"measurement": "IC50", "setting": "A549 [1]", "value": 68, "unit": "µM"}, {"measurement": "IC50", "setting": "MOLT-3", "value": 105, "unit": "µM"}, {"measurement": "IC50", "setting": "THP-1", "value": 95, "unit": "µM"}, {"measurement": "IC50", "setting": "U-937", "value": 98, "unit": "µM"}, {"measurement": "IC50", "setting": "Vero", "value": 160, "unit": "µM"}]}
{"compound": "CN(C)C(=O)C1CC(c2cc3ccccc3c3ccccc23)=NO1", "note": "(configuration not stated)", "values": [{"measurement": "IC50", "setting": "HeLa", "value": 401, "unit": "µM"}, {"measurement": "IC50", "setting": "A549 [1]", "value": 435, "unit": "µM"}, {"measurement": "IC50", "setting": "MOLT-3", "value": "> 500", "unit": "µM"}, {"measurement": "IC50", "setting": "THP-1", "value": "> 500", "unit": "µM"}, {"measurement": "IC50", "setting": "U-937", "value": "> 500", "unit": "µM"}, {"measurement": "IC50", "setting": "Vero", "value": "> 500", "unit": "µM"}]}
{"compound": "CN(C)C(=O)C1CC(c2ccc3ccc4cccc5ccc2c3c45)=NO1", "note": "(configuration not stated)", "values": [{"measurement": "IC50", "setting": "HeLa", "value": 69, "unit": "µM"}, {"measurement": "IC50", "setting": "A549 [1]", "value": 49, "unit": "µM"}, {"measurement": "IC50", "setting": "MOLT-3", "value": 65, "unit": "µM"}, {"measurement": "IC50", "setting": "THP-1", "value": 69, "unit": "µM"}, {"measurement": "IC50", "setting": "U-937", "value": 194, "unit": "µM"}, {"measurement": "IC50", "setting": "Vero", "value": 160, "unit": "µM"}]}
{"compound": "CN(C)C(=O)c1cc(-c2cc3ccccc3c3ccccc23)no1", "values": [{"measurement": "IC50", "setting": "HeLa", "value": 290, "unit": "µM"}, {"measurement": "IC50", "setting": "A549 [1]", "value": 335, "unit": "µM"}, {"measurement": "IC50", "setting": "MOLT-3", "value": 420, "unit": "µM"}, {"measurement": "IC50", "setting": "THP-1", "value": 403, "unit": "µM"}, {"measurement": "IC50", "setting": "U-937", "value": "> 500", "unit": "µM"}, {"measurement": "IC50", "setting": "Vero", "value": "> 500", "unit": "µM"}]}
{"compound": "CN(C)C(=O)c1cc(-c2ccc3ccc4cccc5ccc2c3c45)no1", "values": [{"measurement": "IC50", "setting": "HeLa", "value": 71, "unit": "µM"}, {"measurement": "IC50", "setting": "A549 [1]", "value": 60, "unit": "µM"}, {"measurement": "IC50", "setting": "MOLT-3", "value": 73, "unit": "µM"}, {"measurement": "IC50", "setting": "THP-1", "value": 78, "unit": "µM"}, {"measurement": "IC50", "setting": "U-937", "value": 202, "unit": "µM"}, {"measurement": "IC50", "setting": "Vero", "value": 165, "unit": "µM"}]}
{"compound": "CN(C)C(=O)[C@@H]1CON(C)[C@H]1c1ccc2ccc3cccc4ccc1c2c34", "note": "(racemic)", "values": [{"measurement": "IC50", "setting": "HeLa", "value": 65, "unit": "µM"}, {"measurement": "IC50", "setting": "A549 [1]", "value": 44, "unit": "µM"}, {"measurement": "IC50", "setting": "MOLT-3", "value": 59, "unit": "µM"}, {"measurement": "IC50", "setting": "THP-1", "value": 61, "unit": "µM"}, {"measurement": "IC50", "setting": "U-937", "value": 185, "unit": "µM"}, {"measurement": "IC50", "setting": "Vero", "value": 143, "unit": "µM"}]}
{"compound": "CN(C)C(=O)[C@H]1CON(Cc2ccccc2)[C@H]1c1ccc2ccc3cccc4ccc1c2c34", "note": "(racemic)", "values": [{"measurement": "IC50", "setting": "HeLa", "value": 79, "unit": "µM"}, {"measurement": "IC50", "setting": "A549 [1]", "value": 63, "unit": "µM"}, {"measurement": "IC50", "setting": "MOLT-3", "value": 100, "unit": "µM"}, {"measurement": "IC50", "setting": "THP-1", "value": 93, "unit": "µM"}, {"measurement": "IC50", "setting": "U-937", "value": 102, "unit": "µM"}, {"measurement": "IC50", "setting": "Vero", "value": 151, "unit": "µM"}]}
{"compound": "CN(C)C(=O)[C@@H]1C[C@H](c2ccc3ccc4cccc5ccc2c3c45)N(C)O1", "note": "(racemic)", "values": [{"measurement": "IC50", "setting": "HeLa", "value": 75, "unit": "µM"}, {"measurement": "IC50", "setting": "A549 [1]", "value": 55, "unit": "µM"}, {"measurement": "IC50", "setting": "MOLT-3", "value": 69, "unit": "µM"}, {"measurement": "IC50", "setting": "THP-1", "value": 75, "unit": "µM"}, {"measurement": "IC50", "setting": "U-937", "value": 199, "unit": "µM"}, {"measurement": "IC50", "setting": "Vero", "value": 163, "unit": "µM"}]}
{"compound": "CN(C)C(=O)[C@H]1C[C@H](c2ccc3ccc4cccc5ccc2c3c45)N(Cc2ccccc2)O1", "note": "(racemic)", "values": [{"measurement": "IC50", "setting": "HeLa", "value": 5, "unit": "µM"}, {"measurement": "IC50", "setting": "A549 [1]", "value": 4, "unit": "µM"}, {"measurement": "IC50", "setting": "MOLT-3", "value": 6, "unit": "µM"}, {"measurement": "IC50", "setting": "THP-1", "value": 6, "unit": "µM"}, {"measurement": "IC50", "setting": "U-937", "value": 37, "unit": "µM"}, {"measurement": "IC50", "setting": "Vero", "value": 42, "unit": "µM"}, {"measurement": "Activity", "setting": "Nucleic Acid [2]", "value": "Active"}, {"measurement": "Kb", "setting": "Nucleic Acid [3]", "value": 1.7, "unit": "×10⁵ /M"}, {"measurement": "Kb", "setting": "Nucleic Acid [4]", "value": 1.6, "unit": "×10⁵ /M"}, {"measurement": "Kb", "setting": "Nucleic Acid [5]", "value": 0.3, "unit": "×10⁵ /M"}]}
{"compound": "CN(C)C(=O)[C@H]1C[C@H](c2ccc3ccc4cccc5ccc2c3c45)N(C)O1", "note": "(racemic)", "values": [{"measurement": "IC50", "setting": "HeLa", "value": 63, "unit": "µM"}, {"measurement": "IC50", "setting": "A549 [1]", "value": 41, "unit": "µM"}, {"measurement": "IC50", "setting": "MOLT-3", "value": 52, "unit": "µM"}, {"measurement": "IC50", "setting": "THP-1", "value": 60, "unit": "µM"}, {"measurement": "IC50", "setting": "U-937", "value": 165, "unit": "µM"}, {"measurement": "IC50", "setting": "Vero", "value": 141, "unit": "µM"}]}
{"compound": "CN(C)C(=O)[C@H]1C[C@H](c2cc3ccccc3c3ccccc23)N(Cc2ccccc2)O1", "note": "(racemic)", "values": [{"measurement": "IC50", "setting": "HeLa", "value": 14, "unit": "µM"}, {"measurement": "IC50", "setting": "A549 [1]", "value": 10, "unit": "µM"}, {"measurement": "IC50", "setting": "MOLT-3", "value": 15, "unit": "µM"}, {"measurement": "IC50", "setting": "THP-1", "value": 17, "unit": "µM"}, {"measurement": "IC50", "setting": "U-937", "value": 100, "unit": "µM"}, {"measurement": "IC50", "setting": "Vero", "value": 115, "unit": "µM"}]}
{"compound": "CN1O[C@H](CO)C[C@@H]1c1ccc2ccc3cccc4ccc1c2c34", "note": "(relative stereo)", "values": [{"measurement": "Kb", "setting": "Nucleic Acid [3]", "value": 6.8, "unit": "×10³ /M"}]}
{"compound": "Cc1c2oc3c(C)ccc(C(=O)N[C@@H]4C(=O)N[C@H](C(C)C)C(=O)N5CCC[C@H]5C(=O)N(C)CC(=O)N(C)[C@@H](C(C)C)C(=O)O[C@@H]4C)c3nc-2c(C(=O)N[C@@H]2C(=O)N[C@H](C(C)C)C(=O)N3CCC[C@H]3C(=O)N(C)CC(=O)N(C)[C@@H](C(C)C)C(=O)O[C@@H]2C)c(N)c1=O", "note": "[DACTINOMYCIN] (I: T[dV]P[Sar][NMeV] / II: T[dV]P[Sar][NMeV]; ester I:1-I:C, II:1-II:C; linker I:N-II:N via Actinocin(1to9))", "values": [{"measurement": "Activity", "setting": "A549 [6]", "value": 40, "unit": "%"}]}
